# Measurements reported in PubChem BioAssay AID1259407 (Chemical Carcinogenesis Research Information System (CCRIS), 2018).
# Active and inactive are the calls of the source. The rule behind the calls is not given here.
# Tested on: CCRIS mutagenicity, Ames/micronucleus/aberration tests
# Test: CCRIS mutagenicity studies
# [1] = Test System: AMES SALMONELLA TYPHIMURIUM, Strain/Indicator: TA98, Metabolic Activation: NONE, Method: PREINCUBATION
# [2] = Test System: AMES SALMONELLA TYPHIMURIUM, Strain/Indicator: TA98, Metabolic Activation: NONE, Method: STANDARD PLATE
# [3] = Test System: AMES SALMONELLA TYPHIMURIUM, Strain/Indicator: TA100, Metabolic Activation: NONE, Method: PREINCUBATION
# [4] = Test System: AMES SALMONELLA TYPHIMURIUM, Strain/Indicator: TA100, Metabolic Activation: NONE, Method: STANDARD PLATE
# [5] = Test System: AMES SALMONELLA TYPHIMURIUM, Strain/Indicator: TA100, Metabolic Activation: RAT, LIVER, S-9, AROCLOR 1254, Method: STANDARD PLATE
# [6] = Test System: AMES SALMONELLA TYPHIMURIUM, Strain/Indicator: TA1535, Metabolic Activation: NONE, Method: PREINCUBATION
# [7] = Test System: AMES SALMONELLA TYPHIMURIUM, Strain/Indicator: TA1537, Metabolic Activation: NONE, Method: PREINCUBATION
# [8] = Test System: AMES SALMONELLA TYPHIMURIUM, Strain/Indicator: TA1538, Metabolic Activation: NONE, Method: PREINCUBATION
smiles,measurement,setting,value
CN1CCC[C@H]1c1cccnc1,mutagenic call,"End Point: IN VITRO MICRONUCLEUS, Test System: HUMAN GINGIVAL FIBROBLASTS, Metabolic Activation: NONE",active; positive
same,mutagenic call,"End Point: In vivo micronucleus, Test System: Bone marrow polychromatic erythrocytes, Species: Mouse, Strain/Sex: Swiss/Female, Route: Oral",inactive; negative
same,mutagenic call,"Test System: AMES SALMONELLA TYPHIMURIUM, Strain/Indicator: TA97, Metabolic Activation: NONE, Method: STANDARD PLATE",inactive; negative
same,mutagenic call,"Test System: AMES SALMONELLA TYPHIMURIUM, Strain/Indicator: TA97, Metabolic Activation: RAT, LIVER, S-9, AROCLOR 1254, Method: STANDARD PLATE",inactive; negative
same,mutagenic call,[1],inactive; negative
same,mutagenic call,[2],inactive; negative
same,mutagenic call,"Test System: AMES SALMONELLA TYPHIMURIUM, Strain/Indicator: TA98, Metabolic Activation: RAT, LIVER, S-9, AROCLOR 1254 (5%), Method: PREINCUBATION",inactive; negative
same,mutagenic call,"Test System: AMES SALMONELLA TYPHIMURIUM, Strain/Indicator: TA98, Metabolic Activation: RAT, LIVER, S-9, AROCLOR 1254, Method: STANDARD PLATE",inactive; negative
same,mutagenic call,[3],inactive; negative
same,mutagenic call,[4],inactive; negative
same,mutagenic call,"Test System: AMES SALMONELLA TYPHIMURIUM, Strain/Indicator: TA100, Metabolic Activation: RAT, LIVER, S-9, AROCLOR 1254 (5%), Method: PREINCUBATION",inactive; negative
same,mutagenic call,[5],inactive; negative
same,mutagenic call,[6],inactive; negative
same,mutagenic call,"Test System: AMES SALMONELLA TYPHIMURIUM, Strain/Indicator: TA1535, Metabolic Activation: RAT, LIVER, S-9, AROCLOR 1254 (5%), Method: PREINCUBATION",inactive; negative
same,mutagenic call,[7],inactive; negative
same,mutagenic call,"Test System: AMES SALMONELLA TYPHIMURIUM, Strain/Indicator: TA1537, Metabolic Activation: RAT, LIVER, S-9, AROCLOR 1254 (5%), Method: PREINCUBATION",inactive; negative
same,mutagenic call,[8],inactive; negative
same,mutagenic call,"Test System: AMES SALMONELLA TYPHIMURIUM, Strain/Indicator: TA1538, Metabolic Activation: RAT, LIVER, S-9, AROCLOR 1254 (5%), Method: PREINCUBATION",inactive; negative
C=CC(=O)OCC (tested in a mixture with another compound),mutagenic call,[5],active; positive
same,mutagenic call,"Test System: AMES SALMONELLA TYPHIMURIUM, Strain/Indicator: TA1535, Metabolic Activation: RAT, LIVER, S-9, AROCLOR 1254, Method: STANDARD PLATE",active; positive
same,mutagenic call,"Test System: AMES SALMONELLA TYPHIMURIUM, Strain/Indicator: TA1538, Metabolic Activation: RAT, LIVER, S-9, AROCLOR 1254, Method: STANDARD PLATE",inactive; negative
COc1cccc([N+](=O)[O-])c1,mutagenic call,[1],inactive; negative
same,mutagenic call,"Test System: AMES SALMONELLA TYPHIMURIUM, Strain/Indicator: TA98, Metabolic Activation: RAT, LIVER, S-9, KANECHLOR 500, Method: PREINCUBATION",inactive; negative
same,mutagenic call,"Test System: AMES SALMONELLA TYPHIMURIUM, Strain/Indicator: TA98, Method: PREINCUBATION",inactive; negative
same,mutagenic call,[3],inactive; negative
same,mutagenic call,"Test System: AMES SALMONELLA TYPHIMURIUM, Strain/Indicator: TA100, Metabolic Activation: RAT, LIVER, S-9, KANECHLOR 500, Method: PREINCUBATION",inactive; negative
same,mutagenic call,"Test System: AMES SALMONELLA TYPHIMURIUM, Strain/Indicator: TA100, Method: PREINCUBATION",inactive; negative
same,mutagenic call,[6],inactive; negative
same,mutagenic call,"Test System: AMES SALMONELLA TYPHIMURIUM, Strain/Indicator: TA1535, Method: PREINCUBATION",inactive; negative
same,mutagenic call,[7],inactive; negative
same,mutagenic call,"Test System: AMES SALMONELLA TYPHIMURIUM, Strain/Indicator: TA1537, Method: PREINCUBATION",inactive; negative
same,mutagenic call,[8],inactive; negative
same,mutagenic call,"Test System: AMES SALMONELLA TYPHIMURIUM, Strain/Indicator: TA1538, Method: PREINCUBATION",inactive; negative
CCCCCCCCCCC1CO1 (configuration not stated),mutagenic call,"Test System: AMES SALMONELLA TYPHIMURIUM, Strain/Indicator: TA97, Metabolic Activation: HAMSTER, LIVER, S-9, AROCLOR 1254 (30%), Method: PREINCUBATION",inactive; negative
same,mutagenic call,"Test System: AMES SALMONELLA TYPHIMURIUM, Strain/Indicator: TA97, Metabolic Activation: NONE, Method: PREINCUBATION",inactive; negative
same,mutagenic call,"Test System: AMES SALMONELLA TYPHIMURIUM, Strain/Indicator: TA97, Metabolic Activation: RAT, LIVER, S-9, AROCLOR 1254 (10% & 30%), Method: PREINCUBATION",inactive; negative
same,mutagenic call,"Test System: AMES SALMONELLA TYPHIMURIUM, Strain/Indicator: TA98, Metabolic Activation: HAMSTER, LIVER, S-9, AROCLOR 1254 (10% & 30%), Method: PREINCUBATION",inactive; negative
same,mutagenic call,[1],inactive; negative
same,mutagenic call,"Test System: AMES SALMONELLA TYPHIMURIUM, Strain/Indicator: TA98, Metabolic Activation: RAT, LIVER, S-9, AROCLOR 1254 (10% & 30%), Method: PREINCUBATION",inactive; negative
same,mutagenic call,"Test System: AMES SALMONELLA TYPHIMURIUM, Strain/Indicator: TA100, Metabolic Activation: HAMSTER, LIVER, S-9, AROCLOR 1254 (10% & 30%), Method: PREINCUBATION",inactive; negative
same,mutagenic call,[3],inactive; negative
same,mutagenic call,"Test System: AMES SALMONELLA TYPHIMURIUM, Strain/Indicator: TA100, Metabolic Activation: RAT, LIVER, S-9, AROCLOR 1254 (10% & 30%), Method: PREINCUBATION",inactive; negative
same,mutagenic call,"Test System: AMES SALMONELLA TYPHIMURIUM, Strain/Indicator: TA1535, Metabolic Activation: HAMSTER, LIVER, S-9, AROCLOR 1254 (10% & 30%), Method: PREINCUBATION",inactive; negative
same,mutagenic call,[6],inactive; negative
same,mutagenic call,"Test System: AMES SALMONELLA TYPHIMURIUM, Strain/Indicator: TA1535, Metabolic Activation: RAT, LIVER, S-9, AROCLOR 1254 (10% & 30%), Method: PREINCUBATION",inactive; negative
same,mutagenic call,"Test System: AMES SALMONELLA TYPHIMURIUM, Strain/Indicator: TA1537, Metabolic Activation: HAMSTER, LIVER, S-9, AROCLOR 1254 (10% & 30%), Method: PREINCUBATION",inactive; negative
same,mutagenic call,[7],inactive; negative
same,mutagenic call,"Test System: AMES SALMONELLA TYPHIMURIUM, Strain/Indicator: TA1537, Metabolic Activation: RAT, LIVER, S-9, AROCLOR 1254 (10% & 30%), Method: PREINCUBATION",inactive; negative
same,mutagenic call,"Test System: UDS MOUSE EPIDERMIS IN VIVO/IN VITRO, Strain/Indicator: HOS:HR-1/THYMIDINE INCORPORATION, Metabolic Activation: NONE, Method: LIQUID SCINTILLATION",inactive; negative
Cc1ncc2c(n1)CCC2,mutagenic call,[2],inactive; negative
same,mutagenic call,"Test System: AMES SALMONELLA TYPHIMURIUM, Strain/Indicator: TA98, Metabolic Activation: RAT, LIVER, S-9, Method: STANDARD PLATE",inactive; negative
same,mutagenic call,[4],inactive; negative
same,mutagenic call,"Test System: AMES SALMONELLA TYPHIMURIUM, Strain/Indicator: TA100, Metabolic Activation: RAT, LIVER, S-9, Method: STANDARD PLATE",inactive; negative
same,mutagenic call,"Test System: AMES SALMONELLA TYPHIMURIUM, Strain/Indicator: TA1535, Metabolic Activation: NONE, Method: STANDARD PLATE",inactive; negative
same,mutagenic call,"Test System: AMES SALMONELLA TYPHIMURIUM, Strain/Indicator: TA1535, Metabolic Activation: RAT, LIVER, S-9, Method: STANDARD PLATE",inactive; negative
same,mutagenic call,"Test System: AMES SALMONELLA TYPHIMURIUM, Strain/Indicator: TA1537, Metabolic Activation: NONE, Method: STANDARD PLATE",inactive; negative
same,mutagenic call,"Test System: AMES SALMONELLA TYPHIMURIUM, Strain/Indicator: TA1537, Metabolic Activation: RAT, LIVER, S-9, Method: STANDARD PLATE",inactive; negative
same,mutagenic call,"Test System: AMES SALMONELLA TYPHIMURIUM, Strain/Indicator: TA1538, Metabolic Activation: NONE, Method: STANDARD PLATE",inactive; negative
same,mutagenic call,"Test System: AMES SALMONELLA TYPHIMURIUM, Strain/Indicator: TA1538, Metabolic Activation: RAT, LIVER, S-9, Method: STANDARD PLATE",inactive; negative
N[C@@H](CCC(=O)N[C@@H](CSN=O)C(=O)NCC(=O)O)C(=O)O,mutagenic call,[3],active; positive
same,mutagenic call,"Test System: AMES SALMONELLA TYPHIMURIUM, Strain/Indicator: TA100, Metabolic Activation: RAT, LIVER, S-9, AROCLOR, Method: PREINCUBATION",active; positive
same,mutagenic call,"Test System: AMES SALMONELLA TYPHIMURIUM, Strain/Indicator: TA102, Metabolic Activation: NONE, Method: PREINCUBATION",active; positive
